From US11446301B2, “Quinoline analogs as phosphatidylinositol 3-kinase inhibitors” (NANJING ZHENGXIANG PHARMACEUTICALS CO., LTD., priority 2016, dated 2022)
Where two headings read alike, the source gives them in different places. Values belong to the compound of their own block, whether it stands above or below them.

Tests used:
[1] = PK profiles after iv and PO dosing in rats; assay type: in vivo; conditions: oral dose 10 mg/kg, SD rats, vs idelalisib
Protocol: Compound 2 was dosed by both iv and PO in the rats.

human hepatocytes = test: Hepatocyte stability (parent disappearance in cryopreserved hepatocytes); assay type: in vitro ADME
Protocol: The hepatocyte assay was used to evaluate the metabolic stability of test articles (TA) following incubation in cryopreserved hepatocytes by monitoring parent drug disappearance via […]. The TA with 1% final DMSO concentration was incubated with 0.5 million hepatocytes/ml at 1 μM substrate in duplicate. The incubation was carried out at 37° C. with 5% CO2 and saturating humidity. Samples were taken at 0, 1, 2, and 3 hours to monitor the disappearance of TA and a half-life (t ½) was determined. Table 2 below summarizes the t½ values (e.g. t ½) collected from this Example.

[2] = IV; data from idelalisib NDA filing; cited from earlier work
[3] = cited from earlier work

Oral exposure corrected with dose (AUCinf/dose) higher than that of idelalisib [1]: 20 fold
SMILES: C[C@H](Nc1nc(N)nc(N)c1C#N)c1cc2ccc(F)cc2nc1-c1ccccn1 (stereo in doubt) [Compound 2, (S)-2,4-Diamino-6-[1-(7-fluoro-2-pyridin-2-yl-quinolin-3-yl)-ethyla-mino]-pyrimidine-5-carbonitrile]

improved stability in human hepatocytes (longer half-life) than compound E (human hepatocytes; fold vs compound E): 1.3 ×
SMILES: C[C@H](Nc1nc(N)nc(N)c1C#N)c1cc2ccc(F)cc2nc1-c1ccccc1S(C)(=O)=O (stereo in doubt) [Compound 4, (S)-2,4-Diamino-6-{1-[7-fluoro-2-(2-methanesulfonyl-phenyl)-quinoli-n-3-yl]-ethylamino}-pyrimidine-5-carbonitrile]

improved stability in human hepatocytes (longer half-life) than compound D (human hepatocytes; fold vs compound D): 2.7 ×
SMILES: C[C@H](Nc1nc(N)nc(N)c1C#N)c1cc2ccc(F)cc2nc1-c1ccccc1 [Compound 1, (S)-2,4-diamino-6-[1-(7-fluoro-2-phenyl-quinolin-3-yl)-ethylamino]-pyrimidine-5-carbonitrile]

SMILES: CC[C@H](Nc1ncnc2[nH]cnc12)c1nc2cccc(F)c2c(=O)n1-c1ccccc1 [Idelalisib, idelalisib]
Tmax [2]: 3.6 min
Fatal and/or serious hepatotoxicity, patients ([3]; idelalisib in combination trials): 11%
Fatal and/or serious hepatotoxicity, patients ([3]; idelalisib monotherapy): 18%
